Where two headings read alike, the source gives them in different places.

For one data set, the target named is T1, BRD4-BD2 (Homo sapiens, UniProt O60885).
T1 construct: purchased ReactionBiologyCorp; (RBC)
The experiment in a line: BRD4 AlphaScreen determination (BD2). The class given is binding. As to the method: (1) 1× Assay buffer was prepared according to the kit requirements of ReactionBiologyCorp. (RBC). (2) Compound concentration gradient preparation: the test compounds were tested at final concentrations starting at 10 μM, with 10 concentrations at 3-fold dilution and single well test was set for each concentration. The positive control compound(+)-JQ-1 was tested at final concentrations starting at 1 μM, with 10 concentrations at 3-fold dilution, and duplicated well test was set for each concentration. The solution was gradient diluted to the corresponding 1000-fold final concentration in a 384-well Source plate, and then 20 nL of the solution was transferred to the 384-well reaction plate with Echo550 to be measured. 20 nL of 100% DMSO was transferred to the Max well, and the highest concentration of the positive compounds were transferred to the Min wells. […] (6) 5 μL of 4× peptide solution was added to each well of the reaction plate, centrifuged at 1000 rpm for 1 min. (7) 10 μL of the assay solution was added, centrifuged at 1000 rpm for 60 seconds, the solution was mixed with gentle shaking, and incubated at room temperature for 60 minutes. (8) Reading with EnVision. (9) The IC50 values of the compounds for protein binding inhibition was obtained by fitting the dose-effect curve with the analytical software GraphPad Prism 5. (See Table 1 for specific values)

The test system of a further data set is MV4-11 cells. The experiment in a line: Inhibition of proliferation of MV4-11 cells (CellTiter-Glo). The format is cell-based. To be noted: Homo sapiens, 72 h. As to the method:
Specific experimental steps: 1) Day 0: 96 inoculated cells were digested with trypsin and suspended in cell culture medium, the cell density was detected by an automatic cell counter and the cells were diluted with the culture medium to a suitable density, 100 μL of cell suspension was added to the 96-well plate, and the cell-free medium was used as a control well, and the wells were incubated in a 37° C., 5% CO2 cell incubator overnight; 2) Day 1: A total of 8 concentrations of the compound to be tested in the drug-treated cells were tested at 3-fold dilution, 10 μM was the starting assay concentration of the compound to be tested. Specific steps: 200× compound mother liquor was prepared, the compound was diluted with culture medium to a final concentration of […], that is, 3 μL of 200× compound was added to 197 μL of culture medium, 50 μL diluted compound was added to each well of the 96-well plate, and placed at 37° C., 5% CO2 cell culture incubator for 72 h; 3) Day 4: Cell viability detection: 96-well cell plate was first equilibrated to room temperature, 40 μL of CellTiter-Glo® reagent was added to each well, mixed on a shaker for 2 minutes to fully lyse the cells, incubated at room temperature for 10 minutes to stabilize the luminescence signal, and the luminescence value was read by the Envision microplate reader; 4) data processing was performed by GraphPad Prism 5.0 software to analyze the data, and nonlinear S-curve regression was used to fit the data to obtain a dose-effect curve, and from which the ICso value was calculated. Inhibition rate %=(DMSO treated cell wells−compound treated cell wells)/(DMSO treated cell wells−cell free medium wells)×100. The ICso value was obtained by the four-parameter regression method using the random software in the microplate reader. (See Table 2 for specific values)

A further data set has as its system H1299. The data set is described as follows: Proliferation inhibition of H1299 cells. The class given is cell-based. To be noted: Homo sapiens, NCI-H1299; H1299 cell line; read-out: proliferation inhibitory activity IC50. As to the method:
The proliferation inhibitory activity of some of the embodiment compounds against different cell lines such as LNCAP (+R1881), SKM-1, 22RV1, DU145, MOLM13, MDA-PCA-2b, KASUMI 1, THP-1, KG-1, IEC6, H1299, etc., was tested using similar methods in test embodiment 2 and in the literature.

Data set [1] in a line: Metabolic stability in rat liver microsomes. The format is in vitro ADME. The following applies: liver microsomes 0.5 mg/mL, NADPH, 1 μM compound, read-out: Rat microsomal T1/2. As to the method:
(§1) (1) Metabolic stability test: 150 μL of liver microsomes (final concentration was 0.5 mg/mL) were subjected to metabolic stability incubation, the system containing NADPH (final concentration was 1 mM), 1 μM of the test compound and the positive control midazolam or the negative control atenolol, the reaction was terminated with acetonitrile containing tinidazole at 0 min, 5 min, 10 min, and 30 min, respectively, then the mixture was vortexed for 10 min, and centrifuged at 15000 rmp for 10 min, 50 μL of the supernatant was injected into 96 well. The metabolic stability of the compound was calculated by measuring the relative reduction of the original drug. (See Table 3 for specific values)
On the technique in general: Liver microsomes are vesicles of endoplasmic reticulum, rich in cytochrome P450 enzymes.

Data set [2] can be described thus: Metabolic stability in dog liver microsomes. The format is in vitro ADME. To be noted: liver microsomes 0.5 mg/mL, NADPH, 1 μM compound, read-out: Dog microsomal T1/2. As to the method: as §1
The target of another data set is T2, CYP3A4 (Homo sapiens, UniProt P08684).
T2 construct: human liver microsomes (final concentration was 0.2 mg/mL); from tissue; host or cells: human liver microsomes
T2 sequence (P08684 whole entry): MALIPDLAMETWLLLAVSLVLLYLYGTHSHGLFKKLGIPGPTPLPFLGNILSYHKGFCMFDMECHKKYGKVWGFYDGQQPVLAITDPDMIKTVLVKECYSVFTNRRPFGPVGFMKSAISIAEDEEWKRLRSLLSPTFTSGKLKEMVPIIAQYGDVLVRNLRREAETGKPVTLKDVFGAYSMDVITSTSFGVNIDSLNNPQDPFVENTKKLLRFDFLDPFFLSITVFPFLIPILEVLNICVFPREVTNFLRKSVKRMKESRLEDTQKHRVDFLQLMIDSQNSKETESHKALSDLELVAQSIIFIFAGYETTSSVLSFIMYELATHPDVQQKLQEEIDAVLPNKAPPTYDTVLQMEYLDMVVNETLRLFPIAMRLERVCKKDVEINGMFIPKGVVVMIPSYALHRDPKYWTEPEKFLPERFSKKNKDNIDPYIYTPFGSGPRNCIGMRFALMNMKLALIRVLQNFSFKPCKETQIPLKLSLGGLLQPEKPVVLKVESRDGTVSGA
The data set is described as follows: Direct inhibition test (DI test) in human liver microsomes, CYP3A4. The format is in vitro ADME. To be noted: read-out: inhibitory IC50 on CYP 3A4. As to the method:
(2) Direct inhibition test (DI test): 1004 of human liver microsomes (final concentration was 0.2 mg/mL) system was subjected to inhibition incubation directly, the system contains NADPH (final concentration was 1 mM), 10 μM compound, positive inhibitor cocktail (ketoconazole 10 μM, quinidine 10 μM, sulfapyrazole 100 μM, a-naphthoflavone 10 μM, tranylcypromine […]), negative control (0.1% DMSO BPS) and mixed probe substrate (midazolam 1004, testosterone 10004, dextromethorphan 10 μM, diclofenac 20 μM, phenacetin 100 μM, mephenytoin 100 μM), the reaction was terminated after incubation for 20 min. The relative enzyme activity was calculated by measuring the relative production of metabolites.

The nature of data set [3]: In vivo pharmacokinetics in mice. To be noted: male, Balb c, mouse, plasma, po, 5 mg/kg; for AUC / Cmax / half-life: gavage. As to the method:
Six male SPF-grade SD rats or Balb c mice (Shanghai B&K laboratory animals) were divided into two groups and the test compounds were configured into suitable solutions or suspensions; one group was administered intravenously and one group was administered orally. Blood was collected by jugular vein puncture, and each sample was collected about 0.2 mL/time point, heparin sodium was used for anticoagulation, the blood collection time points were as follows: before administration and 5, 15 and 30 minutes, 1, 2, 4, 6, 8 and 24 h after administration, the blood sample was collected and placed on ice, centrifuged to separate the plasma (centrifugation conditions: 8000 rpm, 6 minutes, 2-8° C.), and the collected plasma was stored at −80° C. before analysis. The plasma samples were analyzed by LC-MS/MS.
According to the blood drug concentration data of the drug, the pharmacokinetic calculation software WinNonlin5.2 non-compartmental model was used to calculate the pharmacokinetic parameters AUC0-t, AUC0-∞, MRT0-∞, Cmax, Tmax, T1/2 and Vd and other parameters and their mean and standard deviation. In addition, the bioavailability (F) was calculated by the following formula.
For samples with a concentration lower than the lower limit of quantification, when calculating the pharmacokinetic parameters, the samples sampled before reaching Cmax should be calculated as zero, and samples sampled after reaching Cmax should be calculated as unquantifiable (BLQ).

In general, bioavailability refers to dose-corrected exposure relative to a reference, in per cent. Usually AUC stands for concentration integrated over time. A low value points to low exposure. By Cmax is commonly meant the maximum level reached in the sampled fluid or tissue. Consider `Cc1cc(F)cc(C)c1Oc1ccc(C(C)(C)O)cc1-c1cn(C)c(=O)c2cc(C(=O)NC3CC(F)(F)C3)[nH]c12` [Embodiment 18, N-(3,3-difluorocyclobutyl)-7-(2-(4-fluoro-2,6-dimethylphenoxy)-5-(2-hydroxyprop-2-yl)phenyl)-5-methyl-4-oxo-4,5-dihydro-1H-pyrrolo[3,2-c] pyridine-2-amide], for which the IC50 on BRD4-BD2 (AlphaScreen, protein binding inhibition, read-out: BRD4-BD2 IC50) was < 0.0005 µM; in the data set with MV4-11 cells, 0.0106 µM; in the data set with H1299, > 1 µM; at CYP3A4, > 15 µM. For the same compound, the figures for the half-life at 1 μM in data set [1] and in data set [2] were 1.38 h and 6.67 h, respectively. In addition, the bioavailability in data set [3] is > 40%. The AUC in data set [3] is > 5 µM·h. For the same compound, the Cmax in data set [3] was > 1.5 µM. In addition, in data set [3], the half-life was > 3 h.
In turn, `CCNC(=O)c1cc2c(=O)n(C)cc(-c3cc(C(C)(C)O)ccc3Oc3c(C)cc(F)cc3C)c2[nH]1` [compound 1, reference compound] displayed an IC50 against BRD4-BD2 of 0.00065 µM. This compound also displayed an IC50 in the data set on MV4-11 cells of 0.0023 µM. In addition, the IC50 with H1299 was > 1 µM. For the same compound, the IC50 on CYP3A4 was > 15 µM. Besides, in data set [3], the bioavailability was > 40%, the AUC is > 5 µM·h, the Cmax is > 1.5 µM and the half-life is > 3 h.
